Measurements: the supplement of paper PMC10307832

The cell lines below were run with CC(O)(CS(=O)(=O)c1ccc(F)cc1)C(=O)Nc1ccc(C#N)c(C(F)(F)F)c1 [Bicalutamide] + Nc1ncn([C@H]2C[C@H](O)[C@@H](CO)O2)c(=O)n1 [Decitabine] (partner 2 µM) (assay: relative viability (nuclei count vs DMSO), 5 days (fraction); higher = more cells survive). Details: first compound 0.08 µM.
In short: (§1)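 For relative viability, nuclei counts in treated wells were divided by those in vehicle wells. Lung cancer cell lines had been pin-tool dosed in 1536-well plates the day after seeding and cultured for 5 days, then fixed and stained in one step (final 0.05% Triton X-100, 1% formaldehyde, 1 ug/ml Hoechst) and imaged at 4×. Doses were one drug alone or a fixed anchor-drug dose plus five library-drug doses (not always all listed) in √10 steps, and values are duplicate-plate medians.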
Cell Line HCC-78 has a relative viability of 0.726. For NCI-H441, the relative viability was 0.264. In the case of LCLC-97TM1, the relative viability was 0.222. For A-427, the relative viability was 0.608. With NCI-H460 the relative viability was 0.55. NCI-H727 was tested, and the relative viability was 0.994. NCI-H1734 showed a relative viability of 0.542. NCI-H2405 showed a relative viability of 0.708. NCI-H1395 showed a relative viability of 0.754. Work on 201T yielded a relative viability of 0.87. In the case of NCI-H1915, the relative viability was 0.28. For HCC-827, the relative viability was 0.337. For LXF-289, the relative viability was 0.346. Work on NCI-H2347 yielded a relative viability of 0.583. NCI-H650 was tested, and the relative viability was 0.318. For NCI-H1651, the relative viability was 0.6. Cell Line EPLC-272H has a relative viability of 0.384. For NCI-H23, the relative viability was 0.312. For NCI-H1792, the relative viability was 0.543. NCI-H1355 gave a relative viability of 0.367. NCI-H322M was tested, and the relative viability was 0.656. With NCI-H1437 the relative viability was 0.554. Cell Line NCI-H1755 has a relative viability of 0.737. NCI-H2085 gave a relative viability of 0.555. HCC-15 was tested, and the relative viability was 0.63. With NCI-H1793 the relative viability was 0.524. For PC-3 [JPC-3], the relative viability was 0.791. For EKVX, the relative viability was 0.336. Cell Line LC-2-ad has a relative viability of 0.808. NCI-H1944 gave a relative viability of 0.441. NCI-H1975 was tested, and the relative viability was 0.384. ABC-1 was tested, and the relative viability was 1.25. Work on NCI-H358 yielded a relative viability of 0.224. RERF-LC-KJ showed a relative viability of 0.745.

Same assay, conditions: first compound 0.253 µM
HCC-78 showed a relative viability of 0.589. Cell Line NCI-H441 has a relative viability of 0.23. For LCLC-97TM1, the relative viability was 0.202. In the case of A-427, the relative viability was 0.533. NCI-H460 was tested, and the relative viability was 0.468. NCI-H727 was tested, and the relative viability was 0.847. NCI-H1734 gave a relative viability of 0.453. For NCI-H2405, the relative viability was 0.689. Work on NCI-H1395 yielded a relative viability of 0.672. Work on 201T yielded a relative viability of 0.847. For NCI-H1915, the relative viability was 0.26. HCC-827 was tested, and the relative viability was 0.252. With LXF-289 the relative viability was 0.398. With NCI-H2347 the relative viability was 0.651. In the case of NCI-H650, the relative viability was 0.308. Cell Line NCI-H1651 has a relative viability of 0.618. For EPLC-272H, the relative viability was 0.373. For NCI-H23, the relative viability was 0.36. NCI-H1792 showed a relative viability of 0.466. Cell Line NCI-H1355 has a relative viability of 0.348. NCI-H322M was tested, and the relative viability was 0.494. Work on NCI-H1437 yielded a relative viability of 0.501. NCI-H1755 was tested, and the relative viability was 0.636. With NCI-H2085 the relative viability was 0.601. In the case of HCC-15, the relative viability was 0.595. PC-3 [JPC-3] gave a relative viability of 0.88. For EKVX, the relative viability was 0.37. LC-2-ad was tested, and the relative viability was 0.831. Cell Line NCI-H1944 has a relative viability of 0.433. Work on NCI-H1975 yielded a relative viability of 0.36. ABC-1 gave a relative viability of 0.929. For NCI-H358, the relative viability was 0.224. RERF-LC-KJ was tested, and the relative viability was 0.631.

Same assay, conditions: first compound 0.8 µM
Cell Line HCC-78 has a relative viability of 0.819. Work on NCI-H441 yielded a relative viability of 0.22. LCLC-97TM1 gave a relative viability of 0.305. In the case of A-427, the relative viability was 0.666. In the case of NCI-H460, the relative viability was 0.598. NCI-H727 showed a relative viability of 0.896. Work on NCI-H1734 yielded a relative viability of 0.515. NCI-H2405 gave a relative viability of 0.787. With NCI-H1395 the relative viability was 0.787. In the case of 201T, the relative viability was 0.857. Work on NCI-H1915 yielded a relative viability of 0.282. HCC-827 was tested, and the relative viability was 0.384. Work on LXF-289 yielded a relative viability of 0.403. NCI-H2347 showed a relative viability of 0.628. NCI-H650 gave a relative viability of 0.333. With NCI-H1651 the relative viability was 0.779. EPLC-272H showed a relative viability of 0.382. In the case of NCI-H23, the relative viability was 0.311. Cell Line NCI-H1792 has a relative viability of 0.618. NCI-H1355 gave a relative viability of 0.395. With NCI-H322M the relative viability was 0.649. With NCI-H1437 the relative viability was 0.599. For NCI-H1755, the relative viability was 0.721. Cell Line NCI-H2085 has a relative viability of 0.553. HCC-15 gave a relative viability of 0.74. In the case of NCI-H1793, the relative viability was 0.574. Work on PC-3 [JPC-3] yielded a relative viability of 0.797. EKVX gave a relative viability of 0.32. Cell Line LC-2-ad has a relative viability of 0.857. With NCI-H1944 the relative viability was 0.428. NCI-H1975 showed a relative viability of 0.436. ABC-1 gave a relative viability of 1.23. NCI-H358 gave a relative viability of 0.193. RERF-LC-KJ gave a relative viability of 0.837.

Same assay, conditions: first compound 2.53 µM
Work on HCC-78 yielded a relative viability of 0.71. With NCI-H441 the relative viability was 0.257. LCLC-97TM1 gave a relative viability of 0.234. Work on A-427 yielded a relative viability of 0.562. For NCI-H460, the relative viability was 0.484. Work on NCI-H727 yielded a relative viability of 0.991. Work on NCI-H1734 yielded a relative viability of 0.558. Work on NCI-H2405 yielded a relative viability of 0.716. With NCI-H1395 the relative viability was 0.806. Work on 201T yielded a relative viability of 0.889. NCI-H1915 gave a relative viability of 0.278. Work on HCC-827 yielded a relative viability of 0.351. Work on LXF-289 yielded a relative viability of 0.403. Cell Line NCI-H2347 has a relative viability of 0.634. Work on NCI-H650 yielded a relative viability of 0.335. In the case of NCI-H1651, the relative viability was 0.655. Work on EPLC-272H yielded a relative viability of 0.342. NCI-H23 was tested, and the relative viability was 0.297. In the case of NCI-H1792, the relative viability was 0.548. NCI-H1355 gave a relative viability of 0.376. Cell Line NCI-H322M has a relative viability of 0.735. NCI-H1437 showed a relative viability of 0.616. NCI-H1755 gave a relative viability of 0.741. In the case of NCI-H2085, the relative viability was 0.525. For HCC-15, the relative viability was 0.584. In the case of NCI-H1793, the relative viability was 0.423. PC-3 [JPC-3] was tested, and the relative viability was 0.873. Cell Line EKVX has a relative viability of 0.333. LC-2-ad showed a relative viability of 0.909. For NCI-H1944, the relative viability was 0.462. NCI-H1975 showed a relative viability of 0.408. Work on ABC-1 yielded a relative viability of 0.847. With NCI-H358 the relative viability was 0.204. RERF-LC-KJ showed a relative viability of 0.66.

What follows are cell lines tested with CC(O)(CS(=O)(=O)c1ccc(F)cc1)C(=O)Nc1ccc(C#N)c(C(F)(F)F)c1 [Bicalutamide] + CS(=O)(=O)N1CCN(Cc2cc3nc(-c4cccc5[nH]ncc45)nc(N4CCOCC4)c3s2)CC1 [Pictilisib] (partner 1 µM) in the same assay as above. Details: first compound 0.08 µM.
In short: as §1
HCC-78 showed a relative viability of 0.202. With NCI-H441 the relative viability was 0.594. Work on LCLC-97TM1 yielded a relative viability of 0.256. With A-427 the relative viability was 0.676. NCI-H460 gave a relative viability of 0.343. NCI-H727 showed a relative viability of 0.415. NCI-H1734 was tested, and the relative viability was 0.438.
